The test relates to production of amyloid beta protein Aβ(1-42) (γ-secretase) in human WT-APP overexpressing CHO cells. Description: Cell-Based γ-Secretase Assay with ELISA Readout. The settings on record: human WT-APP overexpressing CHO cells, ~24 hours at 37° C., Aβ(1-42) ELISA; footnotes: a = geometric mean of >15 determinations, b = single determination, c = geometric mean of 7-15 determinations; read-out: Aβ 42B IC50 (Geometric Mean of 2-6 Determinations). The protocol:
Cell-Based γ-Secretase Assay with ELISA Readout
The ability of compounds to modulate production of amyloid beta protein Aβ(1-42) was determined using human WT-APP overexpressing CHO cells. Cells were plated at 22,000 cells/100 μL well in 96 well tissue culture treated, clear plates (Falcon) in DMEM/F12 based medium and incubated for 24 hours at 37° C. Compounds for testing were diluted in 100% DMSO to achieve an eleven points, half log, dose response for IC50 determinations. Compounds were added in fresh medium to achieve 1% final DMSO. Appropriate vehicle or inhibitor controls were added into control wells individually to obtain minimum or maximum inhibition values, respectively, for the assay signal window before the plates were incubated for ˜24 hours at 37° C. This procedure produces conditioned media in each well which is tested for Aβ(1-42) levels in the ELISA detection step described next. The remaining cell cultures in each well are also tested for cell toxicity as described below.
Coating of ELISA assay plates was initiated by addition of 50 μL/well of an in-house Aβ(1-42) specific antibody at (3 μg/mL) in 0.1 M NaHCO3 (pH 9.0) into black 384-well Maxisorp® plates (Nunc) and incubated overnight at 4° C. The capture antibody was then aspirated from the ELISA assay plates and plates were washed 4×100 μL with Wash Buffer (Dulbecco's PBS, 0.05% Tween 20). 90 μL/well of Blocking Buffer (Dulbecco's PBS, 1.0% BSA (Sigma A7030)) was then added to plates. Ambient temperature incubation was allowed to proceed for a minimum of two hours. Blocking buffer was then removed and 20 μL/well Assay Buffer (Dulbecco's PBS, 1.0% BSA (Sigma A7030), 0.05% Tween 20) was then added. At this point, 40 μL (in duplicate) of experimental conditioned media (described above) were transferred into wells of the blocked ELISA plates containing the capture antibody, followed by overnight incubation at 4° C. Cell toxicity was also measured in the corresponding remaining cells after removal of the conditioned media for the Aβ(1-42) assay by a colorimetric cell proliferation assay (CellTiter 96® AQueous One Solution Cell Proliferation Assay, Promega) according to the manufacturer's instructions.
After overnight incubation of the ELISA assay plates at 4° C., unbound Aβ peptides were removed via (4×100 μL) washes with Wash Buffer. Europium (Eu) labeled (custom labeled, Perkin Elmer) Aβ(1-16) 6e10 Monoclonal Antibody (Covance #SIG-39320) was added, (50 μL/well Eu-6e10 @ 1:10,000, 20 uM EDTA) in Assay Buffer. Incubation at ambient temperature for a minimum of 2 hours was followed by (4×100 μL) washes with Wash Buffer, before 30 μL/well of Delfia Enhancement Solution (Perkin Elmer) was added. Following an one hour ambient temperature incubation, the plates were read on an EnVision plate reader (Perkin Elmer) using standard DELFIA TRF settings. Data analysis including inhibitory IC50 determination was performed using nonlinear regression fit analysis (in-house software) and the appropriate plate mean values for the maximum and minimum inhibition controls.
(In general: In an ELISA, binding on a coated surface is turned into a signal by an enzyme label.)

This note sets out measurements from patent US9067934B2, “Bicyclic pyridinones” (Pfizer Inc., priority 2011, dated 2015).

Where a name gives a salt, the structure may show the parent alone.

As to `Cc1cn(-c2ccc3n(c2=O)CCN(CCOc2cccc4oc5ccccc5c24)C3=O)cn1` [Example 42, 2-[2-(dibenzo[b,d]furan-1-yloxy)ethyl]-7-(4-methyl-1H-imidazol-1-yl)-3,4-dihydro-2H-pyrido[1,2-a]pyrazine-1,6-dione, trifluoroacetate salt], the IC50 (usually the concentration that inhibits the measured activity by half) came to 5.31 nM.

Turning to `Cc1cn(-c2ccc3n(c2=O)CCN(CCOc2ccc(Cl)cc2-c2ccon2)C3=O)cn1` [Example 43, 2-[2-(4-chloro-2-isoxazol-3-ylphenoxy)ethyl]-7-(4-methyl-1H-imidazol-1-yl)-3,4-dihydro-2H-pyrido[1,2-a]pyrazine-1,6-dione, trifluoroacetate salt], the IC50 was determined as 283 nM.

Consider `Cc1cn(-c2ccc3n(c2=O)CCN(CCOc2ccc(Cl)cc2C(C)(C)O)C3=O)cn1` [Example 44, 2-{2-[4-chloro-2-(1-hydroxy-1-methylethyl)phenoxy]ethyl}-7-(4-methyl-1H-imidazol-1-yl)-3,4-dihydro-2H-pyrido[1,2-a]pyrazine-1,6-dione, trifluoroacetate salt], for which the IC50 is 142 nM.

Take `Cc1cn(-c2ccc3n(c2=O)CCN(CCOc2ccc(Cl)c(F)c2C(F)(F)F)C3=O)cn1` [Example 45, 2-{2-[4-chloro-3-fluoro-2-(trifluoromethyl)phenoxy]ethyl}-7-(4-methyl-1H-imidazol-1-yl)-3,4-dihydro-2H-pyrido[1,2-a]pyrazine-1,6-dione, trifluoroacetate salt]: the half-maximal inhibitory concentration (IC50) worked out at 66.3 nM.

As for `Cc1cn(-c2ccc3n(c2=O)CCN(CCOc2cccc4c(Cl)ccc(Cl)c24)C3=O)cn1` [Example 46, 2-{2-[(5,8-dichloro-1-naphthyl)oxy]ethyl}-7-(4-methyl-1H-imidazol-1-yl)-3,4-dihydro-2H-pyrido[1,2-a]pyrazine-1,6-dione, trifluoroacetate salt], the IC50 turned out to be 9.38 nM.

Take `Cc1cn(-c2ccc3n(c2=O)CCN(CCOc2ccnc4cc(C(F)(F)F)c(Cl)cc24)C3=O)cn1` [Example 47, 2-(2-{[6-chloro-7-(trifluoromethyl)quinolin-4-yl]oxy}ethyl)-7-(4-methyl-1H-imidazol-1-yl)-3,4-dihydro-2H-pyrido[1,2-a]pyrazine-1,6-dione]: the IC50 is 9.48 nM.

With `Cc1cn(-c2ccc3n(c2=O)CCN(CCOc2ccc(F)cc2-c2ccnc(C(F)(F)F)c2)C3=O)cn1` [Example 48, 2-(2-{4-fluoro-2-[2-(trifluoromethyl)pyridin-4-yl]phenoxy}ethyl)-7-(4-methyl-1H-imidazol-1-yl)-3,4-dihydro-2H-pyrido[1,2-a]pyrazine-1,6-dione], the IC50 is 143 nM.

For `Cc1cn(-c2ccc3n(c2=O)CCN(CCOc2ccccc2-c2cc(C(F)(F)F)[nH]n2)C3=O)cn1` [Example 49, 7-(4-methyl-1H-imidazol-1-yl)-2-(2-{2-[5-(trifluoromethyl)-1H-pyrazol-3-yl]phenoxy}ethyl)-3,4-dihydro-2H-pyrido[1,2-a]pyrazine-1,6-dione], the IC50 stood at 178 nM.

As for `Cc1cn(-c2ccc3n(c2=O)CCN(CCOc2ccc(Cl)cc2-n2ccc(C(F)(F)F)n2)C3=O)cn1` [Example 50, 2-(2-{4-chloro-2-[3-(trifluoromethyl)-1H-pyrazol-1-yl]phenoxy}ethyl)-7-(4-methyl-1H-imidazol-1-yl)-3,4-dihydro-2H-pyrido[1,2-a]pyrazine-1,6-dione, trifluoroacetate salt], the IC50 was 29.3 nM.

For `Cc1cn(-c2ccc3n(c2=O)CCN(CCOc2cc(C(F)(F)F)nc4c(C)ccc(Cl)c24)C3=O)cn1` [Example 51, 2-(2-{[5-chloro-8-methyl-2-(trifluoromethyl)quinolin-4-yl]oxy}ethyl)-7-(4-methyl-1H-imidazol-1-yl)-3,4-dihydro-2H-pyrido[1,2-a]pyrazine-1,6-dione], the concentration for half-maximal inhibition (IC50) turned out to be 20 nM.

As to `Cc1cn(-c2ccc3n(c2=O)CCN(CCOc2ccc(F)cc2-c2csc(C(F)(F)F)n2)C3=O)cn1` [Example 52, 2-(2-{4-fluoro-2-[2-(trifluoromethyl)-1,3-thiazol-4-yl]phenoxy}ethyl)-7-(4-methyl-1H-imidazol-1-yl)-3,4-dihydro-2H-pyrido[1,2-a]pyrazine-1,6-dione], the concentration for half-maximal inhibition (IC50) is 23.5 nM.

Regarding `Cc1cn(-c2ccc3n(c2=O)CCN(CCOc2cccc4cc(F)ccc24)C3=O)cn1` [Example 53, 2-{2-[(6-fluoro-1-naphthyl)oxy]ethyl}-7-(4-methyl-1H-imidazol-1-yl)-3,4-dihydro-2H-pyrido[1,2-a]pyrazine-1,6-dione, trifluoroacetate salt], the half-maximal inhibitory concentration (IC50) is 26.2 nM.

As to `COc1ccc(-c2cc(C(F)(F)F)[nH]n2)c(OCCN2CCn3c(ccc(-n4cnc(C)c4)c3=O)C2=O)c1` [Example 54, 2-(2-{5-methoxy-2-[5-(trifluoromethyl)-1H-pyrazol-3-yl]phenoxy}ethyl)-7-(4-methyl-1H-imidazol-1-yl)-3,4-dihydro-2H-pyrido[1,2-a]pyrazine-1,6-dione], the 50% inhibitory concentration (IC50) came to 215 nM.

`Cc1cn(-c2ccc3n(c2=O)CCN(C(C)COc2ccc(F)cc2C(F)(F)F)C3=O)cn1` (stereo not drawn) [Example 55, 2-{2-[4-fluoro-2-(trifluoromethyl)phenoxy]-1-methylethyl}-7-(4-methyl-1H-imidazol-1-yl)-3,4-dihydro-2H-pyrido[1,2-a]pyrazine-1,6-dione, formate salt]: the concentration for half-maximal inhibition (IC50) worked out at 168 nM.

For `Cc1cn(-c2ccc3n(c2=O)CCN(CCOc2cc(C(F)(F)F)nn2-c2ccc(F)cc2C)C3=O)cn1` [Example 56, 2-(2-{[1-(4-fluoro-2-methylphenyl)-3-(trifluoromethyl)-1H-pyrazol-5-yl]oxy}ethyl)-7-(4-methyl-1H-imidazol-1-yl)-3,4-dihydro-2H-pyrido[1,2-a]pyrazine-1,6-dione], the 50% inhibitory concentration (IC50) stood at 399 nM.

With `Cc1cn(-c2ccc3n(c2=O)CCN([C@@H](C)COc2ccc(F)cc2C(F)(F)F)C3=O)cn1` [Example 57, 2-{(1S)-2-[4-fluoro-2-(trifluoromethyl)phenoxy]-1-methylethyl}-7-(4-methyl-1H-imidazol-1-yl)-3,4-dihydro-2H-pyrido[1,2-a]pyrazine-1,6-dione], the half-inhibitory concentration (IC50) was 113 nM.

Take `Cc1cn(-c2ccc3n(c2=O)CCN(CCOc2ccccc2-c2cc(C(F)F)no2)C3=O)cn1` [Example 58, 2-(2-{2-[3-(difluoromethyl)isoxazol-5-yl]phenoxy}ethyl)-7-(4-methyl-1H-imidazol-1-yl)-3,4-dihydro-2H-pyrido[1,2-a]pyrazine-1,6-dione, trifluoroacetate salt]: the 50% inhibitory concentration (IC50) came out at 72.1 nM.

`Cc1cn(-c2ccc3n(c2=O)CCN(CCOc2ccc(Cl)cc2-c2cc(C(F)(F)F)[nH]n2)C3=O)cn1` [Example 59, 2-(2-{4-chloro-2-[5-(trifluoromethyl)-1H-pyrazol-3-yl]phenoxy}ethyl)-7-(4-methyl-1H-imidazol-1-yl)-3,4-dihydro-2H-pyrido[1,2-a]pyrazine-1,6-dione]: the concentration for half-maximal inhibition (IC50) stood at 530 nM.

With `COc1cccc2c(OCCN3CCn4c(ccc(-n5cnc(C)c5)c4=O)C3=O)cccc12` [Example 60, 2-{2-[(5-methoxy-1-naphthyl)oxy]ethyl}-7-(4-methyl-1H-imidazol-1-yl)-3,4-dihydro-2H-pyrido[1,2-a]pyrazine-1,6-dione, trifluoroacetate salt], the 50% inhibitory concentration (IC50) worked out at 33.3 nM.

Consider `Cc1cn(-c2ccc3n(c2=O)CCN(CCOc2ccnc4cc(C(F)(F)F)ccc24)C3=O)cn1` [Example 61, 7-(4-methyl-1H-imidazol-1-yl)-2-(2-{[7-(trifluoromethyl)quinolin-4-yl]oxy}ethyl)-3,4-dihydro-2H-pyrido[1,2-a]pyrazine-1,6-dione], for which the concentration for half-maximal inhibition (IC50) stood at 108 nM.

For `Cc1cn(-c2ccc3n(c2=O)CCN(CCOc2cc(C(F)(F)F)nc4c(C)cc(Cl)cc24)C3=O)cn1` [Example 62, 2-(2-{[6-chloro-8-methyl-2-(trifluoromethyl)quinolin-4-yl]oxy}ethyl)-7-(4-methyl-1H-imidazol-1-yl)-3,4-dihydro-2H-pyrido[1,2-a]pyrazine-1,6-dione], the half-inhibitory concentration (IC50) worked out at 39.7 nM.
